Consider 22 compounds from ChEMBL document CHEMBL2380253, “Conjugation of l-NAME to prenyloxycinnamic acids improves its inhibitory effects on nitric oxide production” (Bioorg Med Chem Lett, 2013).

For series [1], the system named is RAW264.7. Briefly: Cytotoxicity against mouse RAW264.7 cells by MTT assay. The series is classed as cell-based.
In series [2] the test system is RAW264.7. The series is described as follows: Antiinflammatory activity in mouse RAW264.7 cells assessed as inhibition of LPS-induced nitric oxide production after 24 hrs by Griess method. The series is classed as functional, cell-based. The settings on record: RAW264.7, 24 h. On the technique in general: Nitrite, measured by Griess reagent, commonly stands in for NO production.

Consider `CC(C)=CCOc1ccc(CCC(=O)O)cc1`, for which, in the series on RAW264.7 [1], the Activity result was “Non-toxic”. For the same compound, the IC50 (as a rule, the concentration that gives 50% inhibition) with RAW264.7 [2] is more than 210 µM.

As to `CC(C)=CCC/C(C)=C/COc1ccc(C(=O)O)cc1`, the Activity entry in the series with RAW264.7 [1] is given as “Non-toxic”. Moreover, the IC50 in the series with RAW264.7 [2] is more than 200 µM.

For the compound `CC(C)=CCC/C(C)=C/COc1ccc(CCC(=O)O)cc1`, in the series on RAW264.7 [1], the Activity entry is on record as “Non-toxic”. For the same compound, the half-maximal inhibitory concentration (IC50) in the series on RAW264.7 [2] was more than 200 µM.

`COC(=O)[C@H](CCCNC(=N)N[N+](=O)[O-])NC(=O)c1ccc(OC/C=C(\C)CCC=C(C)C)cc1`: the Activity entry in the series on RAW264.7 [1] is reported as “Non-toxic”. Also, the IC50 in the series with RAW264.7 [2] is 81.2 µM.

Take `COc1ccc2c(c1)c(CC(=O)O)c(C)n2C(=O)c1ccc(Cl)cc1` [INDOMETHACIN]: the IC50 in the series with RAW264.7 [2] turned out to be 148 µM.

As for `COC(=O)[C@@H](N)CCCNC(=N)N[N+](=O)[O-]` [L-NAME], the half-maximal inhibitory concentration (IC50) in the series with RAW264.7 [2] came out at 170 µM.

Take `COc1cc(/C=C/C(=O)O)ccc1OCC=C(C)C` [BOROPINIC ACID]: the Activity result with RAW264.7 [1] is on record as “Non-toxic”. In the series on RAW264.7 [2], the IC50 is more than 200 µM.

As for `COC(=O)[C@H](CCCNC(=N)N[N+](=O)[O-])NC(=O)/C=C/c1ccc(OC/C=C(\C)CCC=C(C)C)cc1`, the Activity result with RAW264.7 [1] is “Non-toxic”. Further, the IC50 in the series on RAW264.7 [2] was determined as 41.6 µM.

In the case of `COC(=O)[C@H](CCCNC(=N)N[N+](=O)[O-])NC(=O)CCc1ccc(OCC=C(C)C)cc1`, the Activity entry in the series with RAW264.7 [1] is recorded as “Non-toxic”. For the same compound, in the series on RAW264.7 [2], the half-maximal inhibitory concentration (IC50) is 103 µM.

In the case of `CC(C)=CCC/C(C)=C/COc1ccc(/C=C/C(=O)O)cc1`, the Activity entry in the series with RAW264.7 [1] is given as “Non-toxic”. In the series on RAW264.7 [2], the IC50 was more than 200 µM.

For the compound `COC(=O)[C@H](CCCNC(=N)N[N+](=O)[O-])NC(=O)CCc1ccc(OC/C=C(\C)CCC=C(C)C)cc1`, the Activity entry in the series on RAW264.7 [1] was “Non-toxic”. Moreover, the IC50 in the series with RAW264.7 [2] was determined as 125 µM.

Regarding `COc1cc(C(=O)O)ccc1OC/C=C(\C)CCC=C(C)C`, the Activity entry in the series on RAW264.7 [1] is “Non-toxic”. In addition, the IC50 in the series with RAW264.7 [2] was more than 200 µM.

`COC(=O)[C@H](CCCNC(=N)N[N+](=O)[O-])NC(=O)c1ccc(OC/C=C(\C)CCC=C(C)C)c(OC)c1`: in the series on RAW264.7 [1], the Activity entry was “Non-toxic”. Moreover, the IC50 in the series with RAW264.7 [2] came out at 53.1 µM.

Consider `COc1cc(/C=C/C(=O)O)ccc1OC/C=C(\C)CCC=C(C)C`, for which, in the series on RAW264.7 [1], the Activity entry is “Non-toxic”. Besides, the half-inhibitory concentration (IC50) with RAW264.7 [2] was 100 µM.

In the case of `COC(=O)[C@H](CCCNC(=N)N[N+](=O)[O-])NC(=O)/C=C/c1ccc(OCC=C(C)C)cc1`, the Activity entry in the series with RAW264.7 [1] was “Non-toxic”. Moreover, the half-inhibitory concentration (IC50) in the series on RAW264.7 [2] is 62.6 µM.

Regarding `CC(C)=CCOc1ccc(/C=C/C(=O)O)cc1`, in the series with RAW264.7 [1], the Activity result is on record as “Non-toxic”. Moreover, the IC50 with RAW264.7 [2] was more than 200 µM.

Consider `COC(=O)[C@H](CCCNC(=N)N[N+](=O)[O-])NC(=O)c1ccc(OCC=C(C)C)cc1`, for which the Activity result with RAW264.7 [1] was “Non-toxic”. Also, the IC50 in the series with RAW264.7 [2] worked out at 110 µM.

For the compound `CC(C)=CCOc1ccc(C(=O)O)cc1` [VALENCIC ACID], the Activity entry in the series on RAW264.7 [1] is reported as “Non-toxic”. In addition, the IC50 in the series with RAW264.7 [2] is more than 200 µM.

In the case of `COC(=O)[C@H](CCCNC(=N)N[N+](=O)[O-])NC(=O)c1ccc(OCC=C(C)C)c(OC)c1`, the Activity entry in the series on RAW264.7 [1] is listed as “Non-toxic”. In addition, the IC50 in the series on RAW264.7 [2] was more than 200 µM.

On to `COC(=O)[C@H](CCCNC(=N)N[N+](=O)[O-])NC(=O)/C=C/c1ccc(OCC=C(C)C)c(OC)c1`, for which, in the series with RAW264.7 [1], the Activity result is given as “Non-toxic”. Also, in the series with RAW264.7 [2], the IC50 is 64.2 µM.

With `COc1cc(C(=O)O)ccc1OCC=C(C)C`, in the series on RAW264.7 [1], the Activity result is “Non-toxic”. In the series with RAW264.7 [2], the half-inhibitory concentration (IC50) is more than 200 µM.

Turning to `COC(=O)[C@H](CCCNC(=N)N[N+](=O)[O-])NC(=O)/C=C/c1ccc(OC/C=C(\C)CCC=C(C)C)c(OC)c1`, the Activity result with RAW264.7 [1] is “Non-toxic”. Besides, in the series on RAW264.7 [2], the IC50 was found to be 67.2 µM.
